Type in all cases: cell-based, human
One data set relates to NK cells (CD3^-CD56^+). Nature of the data set: NK cell numbers, viability and apoptosis in PBMCs (flow cytometry, DiOC6(3)/PI staining). As to conditions: idelalisib 10 µM, 48 hours; PBMCs from patients with CLL (n = 6 - 8); Figure 4G. How it is done:
(§1) To evaluate absolute cell numbers, an equal volume of PKH26 reference microbeads (Sigma-Aldrich) was added to each sample after staining for immune subset identification. Microbeads (5x10^3) were acquired by flow cytometry and absolute numbers of each immune population within the sample were calculated. Normalized percentage values were calculated considering the control (DMSO)-treated cells as 100%.
(§2) Cell viability and apoptosis were evaluated by double-staining with the mitochondrial inner transmembrane potential (ΔΨm)-sensitive dye DiOC6(3) (3,3'-dihexyloxacarbocyanine iodide; Sigma-Aldrich) and the exclusion dye propidium iodide (PI; Immunostep), allowing identification of apoptotic [DiOC6(3)^low PI^-] and dead [PI^+] cells as per Proc. Natl. Acad. Sci. U.S.A. (2014) 111(8):3020-3025 and Methods Mol. Biol. (2016) 1419:1-16. Briefly, PBMCs were resuspended in culture medium containing 20 nM DiOC6(3) and incubated for 30 minutes at 37 °C. Then, PI (1 µg/mL) was added and cells were further incubated for 10 minutes at room temperature (RT). Cells were analyzed by flow cytometry considering DiOC6(3)^+PI^- cells as viable. In some experiments, apoptosis was evaluated by staining with Annexin V/PI. Thus, PBMCs were incubated in Annexin V binding buffer containing 5 µg/mL Annexin V-FITC (Biolegend) for 15 minutes at RT and PI (1 µg/mL) was subsequently added. Data were normalized to the untreated control as a percentage. Only samples with at least 60% of viable cells (DiOC6(3)^+; Annexin V^-) in the control (DMSO) condition were employed in this study.
(§3) The effect of EC-7072 toward healthy immune subsets, T lymphocytes and natural killer (NK) cells, which are chronically exposed to leukemia cells in the peripheral blood of patients with CLL was assessed by: • (i) incubating PBMCs isolated from patients with CLL (n = 10) following treatment with increasing concentrations of EC-7072 (0 - 400 nM) for 24 hours. Numbers of T cells (CD3^+CD56^-) (Figure 2A) and NK cells (CD3^-CD56^+) (Figure 2B) were evaluated by flow cytometry and normalized to their respective control (DMSO) condition for each individual patient to obtain percentage of relative number of T cells and NK cells, respectively; • (ii) incubating PBMCs isolated from patients with CLL (n = 6 - 10) following treatment with increasing concentrations of EC-7072 (0 - 400 nM) for 24 hours. Viability of immune subsets (leukemia cells, T cells and NK cells) was determined by cytofluorometric assessment of DiOC6(3)/PI staining and normalized to their respective control (DMSO) condition for each individual patient to obtain percentage of viable [DiOC6(3)^+] cells (Figures 2C and 2D); • (iii) incubating PBMCs isolated from patients with CLL (n = 11) following treatment with DMSO or EC-7072 (200 nM) for 24 hours. Numbers of CD4^+ cells (Figure 2E) and CD8^+ T cells (Figure 2F) were evaluated by flow cytometry and normalized to their respective control (DMSO) condition for each individual experiment; • (iv) incubating PBMCs isolated from healthy donors (n = 15) following treatment with EC-7072 (200 nM) for 24 hours. […]
A general note: A flow cytometer gives signals particle by particle.

In another data set the test system is T cells (CD3^+CD56^-). Description: T cell numbers, viability and apoptosis in PBMCs (flow cytometry, DiOC6(3)/PI staining). As to conditions: idelalisib 10 µM, 48 hours; PBMCs from patients with CLL (n = 6 - 8); Figure 4G. How it is done:
as §1, §2, §3

The subject of the next data set is active caspase-3. Description: Caspase-3 activity assay in leukemia cells (flow cytometry). As to conditions: Z-VAD-fmk 0-100 µM pretreatment, then EC-7072 200 nM for 24 hours; n = 6. The method, then:
Intracellular levels of activated caspase-3 were measured by using CaspGLOW™ Fluorescein Active Caspase-3 Staining Kit (Invitrogen). In brief, EC-7072 (200 nM) or DMSO-treated PBMCs from patients with CLL were incubated with FITC-DEVD-fmk for 30 minutes at 37 °c and fluorescence was next analyzed by flow cytometry in leukemia cells. For some experiments, cells were pretreated for 2 hours with the indicated doses of the broad-spectrum caspase inhibitor Z-VAD-fmk.
The induction of caspase-dependent apoptosis on primary CLL cells by EC-7072 was assessed by: • (i) incubating PBMCs isolated from patients with CLL (n = 6) following treatment with increasing concentrations of EC-7072 (0 - 400 nM) for 24 hours. Apoptosis of leukemia cells was evaluated by cytofluorometric assessment of Annexin V/PI staining to obtain percentages of apoptotic [Annexin V^+ PI^-] and dead [PI^+] cells (Figure 3A); • (ii) incubating PBMCs and T cells isolated from patients with CLL (n = 3) following treatment with EC-7072 (200 nM) for 24 hours. T cell apoptosis was evaluated by cytofluorometric assessment of Annexin V/PI staining to obtain percentages of viable [Annexin V-], apoptotic [Annexin V^+ PI^-] and dead [PI^+] cells (Figure 3B); • (iii) incubating PBMCs isolated from patients with CLL (n = 6) following treatment with EC-7072 (0 - 400 nM) for 24 hours. […]

For the next data set, the system named is primary CLL cells. Description: Leukemia cell viability and apoptosis by DiOC6(3)/PI staining and flow cytometry. As to conditions: Z-VAD-fmk 0-100 µM pretreatment, then EC-7072 200 nM for 24 hours; n = 6. How it is done:
as §2
The in vitro cytotoxic activity of EC-7072 against primary CLL cells was assessed by: • (i) incubating PBMCs isolated from patients with CLL (n = 13) following treatment with increasing concentrations of EC-7072 (0 - 400 nM) for 24 hours. Numbers of leukemia cells were evaluated by flow cytometry and normalized to their respective control (DMSO) condition for each individual patient to obtain percentage of leukemia cells (Figure 1A); • (ii) incubating PBMCs from patients with CLL (n = 10) with or without EC-7072 (100-400 nM) for 24 hours. Viability of leukemia cells was determined by cytofluorometric assessment of DiOC6(3)/PI staining and normalized to their respective control condition to obtain percentage viability (Figure 1B); • (iii) incubating PBMCs from patients with CLL (n = 10) with increasing concentrations of EC-7072 (0 - 400 nM) for 24 hours. Apoptosis of leukemia cells was determined by DiOC6(3)/PI staining and flow cytometry to obtain the mean percentages of apoptotic [DiOC6(3)^low PI^-] and dead [PI^+] cells (Figure 1C); • (iv) incubating PBMCs from patients with CLL (n = 10) with or without EC-7072 (200 nM) for 12 to 72 hours. Viability of leukemia cells was determined by DiOC6(3)/PI staining and normalized to their respective control condition to obtain percentage viability (Figure 1D); • (v) incubating PBMCs from patients with CLL (n = 24) with MTA (200 nM) or EC-7072 (200 nM) for 24 hours. Leukemia cell death was determined by DiOC6(3)/PI staining and flow cytometry to obtain the mean percentages of apoptotic [DiOC6(3)^low PI^-] and dead [PI^+] cells (Figure 1E); • (vi) incubating PBMCs from patients with CLL (n = 63) or healthy donors (n = 20) with or without EC-7072 (200 nM) for 24 hours. Viability of leukemia cells and healthy B cells was evaluated by DiOC6(3)/PI staining and normalized to their respective control condition to obtain percentage viability (Figure 1F); • (vii) incubating PBMCs from patients with CLL (n = 62) following treatment with EC-7072 (200 nM) for 24 hours and obtaining a cytogenetic profile for each patient. Viability of leukemia cells was evaluated by DiOC6(3)/PI staining and normalized to their respective control (DMSO) condition for each individual patient to obtain the percentage of viable [DiOC6(3)^+] cells (Figure 1G); • (viii) incubating PBMCs from patients with CLL (n = 59) following treatment with EC-7072 (200 nM) for 24 hours and determining mutational status of IgHV for each patient. Viability of leukemia cells was evaluated by DiOC6(3)/PI staining and normalized to their respective control (DMSO) condition for each individual patient to obtain the percentage of viable [DiOC6(3)^+] cells (Figure 1H). […]

The test system of a further data set is HK-2 cells. Description: Cell death of HK-2 cells by PI staining. As to conditions: 200 nM, 24 hours; n = 3. How it is done:
(§4) Effectiveness of EC-7072 against different B-cell malignancies was assessed by; • (i) incubating primary fibroblasts from healthy donors (n = 4) and HK-2 cells from healthy human adult kidney (n = 3) following treatment with MTA (200 nM) or EC-7072 (200 nM) for 24 hours. Cell death was evaluated by PI staining to obtain the percentages corresponding to the [PI^+] subset (Figure 5A) and the mean percentage of [PI^+] cells (Figure 5B); • (ii) treating MEC-1, GRANTA-519, Z-138, JVM-2, CA-46, Ramos, Raji and U266 cell lines (n = 3) following treatment with EC-7072 (500 nM) followed by incubation for 24 hours. Cell viability was assessed by DiOC6(3)/PI staining and normalized to control (DMSO) condition to obtain mean percentage of viable [DiOC6(3)^+] cells (Figure 5C).

The test system of data set [1] is primary fibroblasts from healthy donors. Nature of the data set: Cell death of primary fibroblasts by PI staining. As to conditions: 200 nM, 24 hours; n = 4. The method, then:
as §4

These results are taken from patent EP3797781A1, “USE OF EC-7072 AND SYNERGIC COMPOSITIONS THEREOF IN TREATMENT OF CHRONIC LYMPHOCYTIC LEUKEMIA” (priority 2019, dated 2021).

On to `CC[C@H](Nc1ncnc2[nH]cnc12)c1nc2cccc(F)c2c(=O)n1-c1ccccc1` [Idelalisib, reference compound], for which the “viability of NK cells” value with NK cells (CD3^-CD56^+) is listed as “negligible effects”. Besides, in the data set with T cells (CD3^+CD56^-), the “viability of T cells” value is reported as “negligible effects”.

Consider Z-VAD-fmk [reference compound], for which the “active caspase-3 levels on leukemia cells after Z-VAD-fmk pretreatment” value in the data set with active caspase-3 is “decrease of active caspase-3 levels”. Besides, in the data set on primary CLL cells, the “death of primary CLL cells induced by EC-7072 after Z-VAD-fmk pretreatment” value is given as “completely abrogated the death”.

Take `COC(C(=O)C(O)C(C)O)C1Cc2cc3cc(OC4CC(OC5CC(O)C(O)C(C)O5)C(O)C(C)O4)c(C)c(O)c3c(O)c2C(=O)C1OC1CC(OC2CC(OC3CC(C)(O)C(O)C(C)O3)C(O)C(C)O2)C(O)C(C)O1` (stereo not drawn) [MTA, Mithramycin A, reference compound]: the “viability of HK-2 cells (PI^+ cells)” value in the data set on HK-2 cells is on record as “high toxicity”. Also, in data set [1], the “viability of primary human fibroblasts (PI^+ cells)” value is on record as “high toxicity”.
